Experimental data published in patent US10919884B2, “Amide compounds for treatment of immune and inflammatory disorders” (Achillion Pharmaceuticals, Inc., priority 2015, dated 2021).

Target: Human Factor D (Homo sapiens (Human), UniProt P00746)
Test: Human Factor D Assay
Assay type: biochemical
Conditions: Human Factor D purified from human serum, 80 nM; substrate Z-L-Lys-SBzl and DTNB 100 μM each; assay of Example 12
Protocol: Example 12. Human Factor D Assay
Human Factor D (purified from human serum, Complement Technology, Inc.) at 80 nM final concentration is incubated with test compound at various concentrations for 5 minutes at room temperature in 50 mM Tris, 1 M NaCl, pH 7.5. A synthetic substrate Z-L-Lys-SBzl and DTNB (Ellman's reagent) are added to final concentrations of 100 μM each. Absorbance at 405 nm (A405) is recorded at 30 second intervals for 30 minutes using a microplate spectrophotometer. IC50 values are calculated by nonlinear regression of complement Factor D reaction rates as a function of test compound concentration.
The assay of Example 12 was used to determine the IC50's of the compounds. Other standard Factor D inhibition assays are also available.

Human Factor D, sequence (P00746 26-253): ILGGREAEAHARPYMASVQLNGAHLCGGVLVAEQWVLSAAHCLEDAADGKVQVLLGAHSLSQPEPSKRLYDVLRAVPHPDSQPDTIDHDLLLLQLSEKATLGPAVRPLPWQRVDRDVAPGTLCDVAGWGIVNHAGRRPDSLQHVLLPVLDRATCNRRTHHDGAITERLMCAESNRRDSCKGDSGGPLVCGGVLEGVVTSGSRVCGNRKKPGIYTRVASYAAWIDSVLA

Structure (SMILES) | IC50
Cc1cccc(NC(=O)[C@@H]2CC=CCN2C(=O)Cn2cc(C(N)=O)c3cc(NC(=O)N4CCCC(F)(F)C4)ccc32)n1 [Compound 1, (S)-5-(3,3-difluoropiperidine-1-carboxamido)-1-(2-(6-((6-methylpyridin-2-yl)carbamoyl)-5,6-dihydropyridin-1(2H)-yl)-2-oxoethyl)-1H-indole-3-carboxamide] | > 10 µM
Cc1cccc(C[C@@H](O)[C@H]2C[C@@H](F)CN2C(=O)Cn2cc(C(N)=O)c3cc(NC(=O)N4CCCC(F)(F)C4)ccc32)n1 [Compound 2, 5-(3,3-difluoropiperidine-1-carboxamido)-1-(2-((2R,4R)-4-fluoro-2-((R)-1-hydroxy-2-(6-methylpyridin-2-yl)ethyl)pyrrolidin-1-yl)-2-oxoethyl)-1H-indole-3-carboxamide] | > 10 µM
Cc1cccc(C[C@H](O)[C@@H]2C[C@@H](F)CN2C(=O)Cn2cc(C(N)=O)c3cc(NC(=O)N4CCCC(F)(F)C4)ccc32)n1 [Compound 3, 5-(3,3-difluoropiperidine-1-carboxamido)-1-(2-((2S,4R)-4-fluoro-2-((S)-1-hydroxy-2-(6-methylpyridin-2-yl)ethyl)pyrrolidin-1-yl)-2-oxoethyl)-1H-indole-3-carboxamide] | > 10 µM
Cc1cccc(NC(=O)[C@@H]2CCC(F)CCN2C(=O)Cn2cc(C(N)=O)c3cc(NC(=O)N4CCCC(F)(F)C4)ccc32)n1 (stereo partly drawn) [Compound 4, 5-(3,3-difluoropiperidine-1-carboxamido)-1-(2-((2S)-5-fluoro-2-((6-methylpyridin-2-yl)carbamoyl)azepan-1-yl)-2-oxoethyl)-1H-indole-3-carboxamide] | > 10 µM
Cc1cccc(NC(=O)[C@@H]2CC=CCN2C(=O)Cn2cc(C(N)=O)c3cc(C(=O)NS(=O)(=O)C4CC4)ccc32)n1 [Compound 5, (S)-N5-(cyclopropylsulfonyl)-1-(2-(6-((6-methylpyridin-2-yl)carbamoyl)-5,6-dihydropyridin-1(2H)-yl)-2-oxoethyl)-1H-indole-3,5-dicarboxamide] | > 10 µM
